Values of other authors, collected in article PMC11949389 (Polish Journal of Microbiology, 2025).
Converted amounts (≈) assume the structure as drawn. Like-named read-outs stand apart in the source and are kept apart here.

Key:
Enterococcus sp. = settings: ref Caballero Gómez et al. 2022
Streptococcus suis = settings: ref de Aguiar et al. 2019
Malassezia pachydermatis = settings: ref Schlemmer et al. 2019, Sim et al. 2019
Vibrio harveyi = settings: ref Rossi et al. 2021
[1] = tested on: Enterococcus, Pseudomonas, and Staphylococcus strains; settings: ref Caballero Gómez et al. (2022)
Pseudomonas sp. = settings: ref Caballero Gómez et al. 2022
Staphylococcus sp. = settings: ref Caballero Gómez et al. 2022
[2] = tested on: Vibrio anguillarum, and Vibrio harveyi; settings: ref Rossi et al. (2021)
Vibrio anguillarum = settings: ref Rossi et al. 2021
[3] = tested on: C. albicans and co-isolated bacteria; settings: carvacrol combined with cuminaldehyde; ref Touil et al. (2020)
[4] = tested on: Vancomycin-resistant Enterococcus (VRE); settings: vancomycin-resistant enterococci strains; ref Owen et al. (2019)
[5] = tested on: Ciprofloxacin-resistant Escherichia coli; settings: resistant E. coli strains; ref Owen et al. (2019)
Escherichia coli = settings: antibiotic-sensitive E. coli; ref Owen et al. (2019)
[6] = tested on: amphotericin B-resistant C. albicans; settings: varying among Candida isolates; ref Touil et al. (2020)
[7] = tested on: Vancomycin-sensitive Enterococcus (VSE)
[8] = tested on: Methicillin-susceptible Staphylococcus aureus; settings: ref Owen et al. 2019
[9] = tested on: bacteria co-isolated with C. albicans; settings: ref Touil et al. (2020)
bovine mastitis = settings: versus antibiotic treatment, ref Guo et al. 2023
Klebsiella pneumoniae = settings: ref Sayout et al. 2020, de Souza et al. 2021, Kwiatkowski et al. 2022
Acinetobacter baumannii [10] = settings: ref Choudhary et al. 2022
Acinetobacter baumannii [11] = settings: for MIC/Sensitivity: ref Sayout et al. 2020
Staphylococcus aureus = settings: for MIC/Sensitivity: Staphylococcus aureus, ref Kwiatkowski et al. 2020, Sayout et al. 2020, Sousa Silveira et al. 2020, Macêdo et al. 2022, Noumi et al. 2023, Sharma et al. 2023; for MIC: S. aureus
[12] = tested on: Mupirocin-resistant Staphylococcus aureus; settings: ref Kwiatkowski et al. 2019
Salmonella spp. = settings: ref Sayout et al. 2020
[13] = tested on: Ciprofloxacin-resistant Pseudomonas aeruginosa; settings: resistant P. aeruginosa strains; ref Owen et al. (2019)
Klebsiella oxytoca = settings: ref Sayout et al. 2020
Enterobacter cloacae = settings: ref Sayout et al. 2020
Enterobacter aerogenes = settings: ref Sayout et al. 2020
[14] = tested on: Mupirocin-susceptible Staphylococcus aureus; settings: ref Kwiatkowski et al. 2019
[15] = tested on: Staphylococcus pseudintermedius; settings: Staphylococcus pseudintermedius; ref Sim et al. 2019
Candida albicans [16] = settings: Candida albicans; ref Sharifzadeh et al. 2019; Iraji et al. 2020; Shaban et al. 2020; Stringaro et al. 2022; Biernasiuk et al. 2022
Candida species = settings: ref Stringaro et al. (2022)
TetK efflux pump = settings: S. aureus, ref Sousa Silveira et al. (2020)
Candida tropicalis = settings: Candida tropicalis; ref Iraji et al. 2020; Stringaro et al. 2022
Candida glabrata = settings: Candida glabrata; ref Sharifzadeh et al. 2019; Iraji et al. 2020; Biernasiuk et al. 2022; Stringaro et al. 2022
staphylococcal isolates = settings: ref Sim et al. 2019
Salmonella Thyphimurium = settings: ref Giovagnoni et al. 2020
[17] = tested on: β-haemolytic Streptococcus spp.; settings: ref Sim et al. 2019
HIV-1 = settings: HIV-1; ref Mediouni et al. (2020)
Proteus mirabilis = settings: ref Sim et al. 2019
Candida auris [18] = settings: ref Shaban et al. 2020
Campylobacter jejuni [19] = settings: for MIC/Sensitivity: Campylobacter jejuni, ref Šimunović et al. 2020; for MIC: ref Šimunović et al. (2020)
Candida auris [20] = settings: Candida auris; ref Shaban et al. 2020
Salmonella Typhimurium = settings: ref Giovagnoni et al. (2020)
Candida krusei = settings: Candida krusei; ref Sharifzadeh et al. 2019; Iraji et al. 2020; Biernasiuk et al. 2022; Stringaro et al. 2022
Candida albicans [21] = settings: ref Shaban et al. 2020
[22] = tested on: Chikungunya virus (CHIKV); settings: ref Kumar et al. (2021)
influenza H1N1 = settings: 20 μg/ml; ref Panagiotopoulos et al. (2021)
Campylobacter jejuni [23] = tested on: Campylobacter jejuni
[24] = tested on: Methicillin-resistant Staphylococcus aureus; settings: Methicillin-resistant Staphylococcus aureus; ref Owen et al. 2019

## O=C/C=C/c1ccccc1 [Cinnamaldehyde]
Enterococcus sp.
  MIC/Sensitivity: 0.01 to 0.05 mg/mL
Streptococcus suis
  MIC/Sensitivity: 0.15625 to 0.3125 mg/mL
Malassezia pachydermatis
  MIC/Sensitivity: 0.0025 to 0.64 mg/mL
Vibrio harveyi
  MIC/Sensitivity: 278.616 mg/mL (≈ 2110 mM)
[1]
  MIC: 0.01 to 0.05 mg/mL
Pseudomonas sp.
  MIC/Sensitivity: 0.01 to 0.05 mg/mL
Staphylococcus sp.
  MIC/Sensitivity: 0.01 to 0.05 mg/mL
[2]
  MIC: 0.94 to 7.5 mM
Vibrio anguillarum
  MIC/Sensitivity: 555.75 mg/mL (≈ 4210 mM)

## CC(C)c1ccc(C=O)cc1 [Cuminaldehyde]
[3]
  MIC in combination: 500–2,000 μg/ml
[4]
  MIC: 537.65 mM (≈ 79700 µg/mL)
[5]
  MIC: 8.40 mM (≈ 1240 µg/mL)
Escherichia coli
  MIC: 2.10 mM (≈ 311 µg/mL)
[6]
  MIC: 2 to 4 mg/mL
[7]; vancomycin-susceptible enterococci (VSE), ref Owen et al. (2019)
  MIC: 134.41 mM (≈ 19900 µg/mL)
[8]
  MIC/Sensitivity: 4979.52 mg/mL (≈ 33600 mM)
[9]
  MIC: 1,000–4,000 μg/ml

## CC(C)=CCC/C(C)=C/CO [Geraniol]
Bovine mastitis
  therapeutic effect: equivalent therapeutic effects
Klebsiella pneumoniae
  MIC/Sensitivity: 1.74 mg/mL (≈ 11.3 mM)
Acinetobacter baumannii [10]
  Mechanisms of action: • Reduction in exopolysaccharide production • Disruption and inhibition of biofilm • Downregulation of csuE gene
Enterococcus sp.
  MIC/Sensitivity: 0.1 to 0.35 mg/mL
Pseudomonas sp.
  MIC/Sensitivity: 0.1 to 0.4 mg/mL
Staphylococcus sp.
  MIC/Sensitivity: 0.1 to 0.4 mg/mL
[2]
  MIC: 0.94 to 7.5 mM

## C=CC(C)(O)CCC=C(C)C (centres unmarked) [Linalool]
Klebsiella pneumoniae
  MIC/Sensitivity: 0.00383 mg/mL (≈ 0.0248 mM)
Acinetobacter baumannii [11]
  MIC/Sensitivity: 0.00144 mg/mL (≈ 0.00934 mM)
Staphylococcus aureus
  MIC/Sensitivity: 0.00288 to 6.8 mg/mL
[12]
  MIC/Sensitivity: 2.83 mg/mL (≈ 18.3 mM)
Salmonella spp.
  MIC/Sensitivity: 0.00288 mg/mL (≈ 0.0187 mM)
Pseudomonas aeruginosa; antibiotic-sensitive P. aeruginosa, ref Owen et al. (2019)
  MIC: 228.20 mM (≈ 35200 µg/mL)
[13]
  MIC: 912.90 mM (≈ 141000 µg/mL)
[7]; binary combinations with vancomycin, VSE, ref Owen et al. (2020)
  reduction in vancomycin’s MIC: four to eight-fold reduction
Klebsiella oxytoca
  MIC/Sensitivity: 0.00144 mg/mL (≈ 0.00934 mM)
Enterobacter cloacae
  MIC/Sensitivity: 0.00192 mg/mL (≈ 0.0124 mM)
Enterobacter aerogenes
  MIC/Sensitivity: 0.00144 mg/mL (≈ 0.00934 mM)
[2]
  activity at the tested concentrations: no activity
[14]
  MIC/Sensitivity: 6.8 mg/mL (≈ 44.1 mM)

## Cc1ccc(C(C)C)c(O)c1 [Thymol]
[15]
  MIC/Sensitivity: 0.1 to 0.2 mg/mL
Klebsiella pneumoniae
  MIC/Sensitivity: 0.78 mg/mL (≈ 5.19 mM)
Acinetobacter baumannii [11]; combined with ciprofloxacin, ref Aleksic Sabo et al. (2021)
  FICI: 0.25–0.32
Candida albicans [16]
  MIC/Sensitivity: 0.195 to 0.625 mg/mL
Candida species
  MIC: 0.195 to 0.39 mg/mL
TetK efflux pump
  efflux pump inhibition: did not act as efflux pump inhibitors
Staphylococcus aureus; ref Sharma et al. (2023)
  MIC: 0.125 to 0.25 mg/mL
Staphylococcus aureus; ref Sousa Silveira et al. (2020)
  MIC: 0.072 mg/mL (≈ 0.479 mM)
Staphylococcus aureus
  MIC/Sensitivity: 0.072 to 0.8 mg/mL
Candida tropicalis
  MIC/Sensitivity: 0.39 mg/mL (≈ 2.6 mM)
Candida glabrata
  MIC/Sensitivity: 0.39 mg/mL (≈ 2.6 mM)
Enterococcus sp.
  MIC/Sensitivity: 0.2 to 0.45 mg/mL
Staphylococcal isolates
  MIC90: 0.146 to 0.2 mg/mL
Salmonella Thyphimurium
  Mechanisms of action: • Anti-inflammatory effects • Anti-oxidant properties • Enhanced epithelial barrier integrity • Reduction of bacterial translocation • Improved transepithelial electrical resistance • Inhibited bacterial growth
Streptococcus suis
  MIC/Sensitivity: 0.15625 mg/mL (≈ 1.04 mM)
[17]; β-haemolytic Streptococcus spp.
  MIC/Sensitivity: 0.2 to 0.4 mg/mL
[17]; β-hemolytic Streptococcus
  MIC90: 0.292 to 0.4 mg/mL
HIV-1
  IC50: 25.2 µM
Pseudomonas aeruginosa; P. aeruginosa, ref Sim et al. 2019
  MIC90: 0.8 mg/mL (≈ 5.33 mM)
Pseudomonas aeruginosa; Pseudomonas aeruginosa, ref Owen et al. 2019, Sim et al. 2019, Noumi et al. 2023
  MIC/Sensitivity: 0.4 to 0.8 mg/mL
Proteus mirabilis
  MIC90: 0.2 to 0.292 mg/mL
  MIC/Sensitivity: 0.2 mg/mL (≈ 1.33 mM)
Malassezia pachydermatis
  MIC/Sensitivity: 0.01 to 0.8 mg/mL
Candida auris [18]
  Mechanisms of action: • Reduced proteinase production and host cell adherence
Campylobacter jejuni [19]
  MIC/Sensitivity: 0.03125 mg/mL (≈ 0.208 mM)
  MIC: 31.25 µg/mL (≈ 0.208 mM)
Candida auris [20]
  MIC: 0.312 mg/mL (≈ 2.08 mM)
  MIC/Sensitivity: 0.312 mg/mL (≈ 2.08 mM)
Salmonella Typhimurium
  MIC: 1.87 mM (≈ 281 µg/mL)
Pseudomonas sp.
  MIC/Sensitivity: 0.1 to 0.3 mg/mL
Candida krusei
  MIC/Sensitivity: 0.39 mg/mL (≈ 2.6 mM)
Candida albicans [21]
  Mechanisms of action: • Reduced proteinase production
Staphylococcus sp.
  MIC/Sensitivity: 0.2 to 0.4 mg/mL
[2]
  MIC: 0.94 to 7.5 mM

## CC1=CC(=O)C(C(C)C)=CC1=O [Thymoquinone]
[22]; CHIKV replication
  EC50: 4.48 µM
[22]; plaque reduction assay, 20 μM
  reduction of CHIKV titer: over 90%
Campylobacter jejuni [19]
  MIC/Sensitivity: 0.03125 mg/mL (≈ 0.19 mM)
  MIC: 31.25 µg/mL (≈ 0.19 mM)

## Cc1ccc(C(C)C)cc1 [p-Cymene]
Influenza H1N1
  effect on influenza H1N1: reduced virus protein expression and impaired nuclear translocation
Klebsiella pneumoniae
  MIC/Sensitivity: 0.01025 mg/mL (≈ 0.0764 mM)
Acinetobacter baumannii [11]
  MIC/Sensitivity: 0.00513 mg/mL (≈ 0.0382 mM)
Campylobacter jejuni [23]; C. jejuni, ref Šimunović et al. (2020)
  efflux pump inhibition: inhibited efflux pumps
Campylobacter jejuni [23]; Campylobacter jejuni, ref Šimunović et al. 2020
  Mechanisms of action: • Inhibition of efflux pump
Staphylococcus aureus
  MIC/Sensitivity: 0.01025 mg/mL (≈ 0.0764 mM)
Campylobacter jejuni [19]
  MIC/Sensitivity: 1 mg/mL (≈ 7.45 mM)
  MIC: 1,000 μg/ml
[8]
  MIC/Sensitivity: 1075.1022 mg/mL (≈ 8010 mM)
Enterobacter cloacae
  MIC/Sensitivity: 0.0041 mg/mL (≈ 0.0305 mM)
[24]
  MIC/Sensitivity: 2150.2044 mg/mL (≈ 16000 mM)
